According to US4544740A, “Process for the preparation of 5-(2-bromovinyl)-uridine” (priority 1981, dated 1985):
Values after ≈ are worked out from the molar mass of the structure shown. Values joined by “and” are separate entries in the source; they are usually repeats but may differ in a detail not shown here. Equal values may be shown once. “Also recorded” adds a separate entry of the source. Read-outs that look alike come from different tables or passages of the source.

How the values were obtained:
[1] = system: type 1 Herpes simplex virus; assay: Inhibitory effect of nucleoside analogues on multiplication of type 1 Herpes simplex in HeLa cell culture (virus titer, TCID50); type: cell-based, Herpes simplex virus type 1; settings: for log TCID50, average: average of individual experiments; for Δ log TCID50, average / Δ log TCID50: difference from control; for antiviral (anti-herpes) effect in words: in vitro, tissue culture
Excerpt: (§1) A method was developed for the testing of the antiviral activity of various drugs in solution which is suitable for the exact, sensitive and objective in vitro assay of drug activity exerted on the cells and tissues of both warm-blooded animals and men [Toxicology 16, 59 (1980)]. The method is also suitable for calculating from the test data the highest concentration of the test drug in the tissue culture medium which is not impairing the tissue yet (CTo).
The difference in the logarithm of virus titers may be considered the objective indicator of the rate of inhibition of virus multiplication.

Herpes simplex type 1 = assay: Effect of nucleoside analogues on virus multiplication in cell cultures at concentrations of CTo: Herpes simplex type 1 in HeLa cell culture; type: cell-based, Herpes simplex virus type 1
Protocol: The testing of antiviral activity was carried out according to the following considerations:
According to the literature the major part of antiviral nucleoside analogues is presumed to exert its "antiviral potency" by interfering with the functioning of the host cell which as a result fails to promote intracellular virus multiplication (it is a well known fact that virus multiplication requires a well functioning host cell).
Effect of nucleoside analogues on virus multiplica-
tion in cell cultures at concentrations of CTo
^1 = type 1 in HeLa cell culture

[2] = Cytotoxicity of nucleoside analogues in RK-13 cell cultures; type: cell-based; settings: rabbit, rk-13 cells
Excerpt: (§2) Cytotoxicity of nucleoside analogues at concentra-
(§3) tions of CTo and CT50 in various cell cultures in […]

tissue culture = assay: Comparative toxicity in tissue culture
Excerpt: as §1

[3] = Cytotoxicity of nucleoside analogues in BHK-21 cell cultures; type: cell-based; settings: hamster, bhk-21 cells
Excerpt: as §2, §3

[4] = Cytotoxicity of nucleoside analogues in Vero cell cultures; type: cell-based; settings: monkey, vero cells
Excerpt: as §2, §3

Water solubility = type: physicochemical; settings: i.v. trial limited
[5] = Cytotoxicity of nucleoside analogues in HeLa cell cultures; type: cell-based; settings: human, hela cells
Excerpt: as §2, §3

Herpes simplex virus = settings: literature; cited from earlier work
[6] = individual experiments, HeLa, concentration of CTo
[7] = read-out: CT50 (the source's name) (converted)

Protocol for mice: Solvent: 20 percent aqueous dimethylsulfoxide
Acute toxicity after a single dose
/measured after 24 hours/
Dose Number of dead/treated animals

SMILES: O=c1[nH]c(=O)n([C@@H]2O[C@H](CO)[C@@H](O)[C@H]2O)cc1/C=C/Br [A, (E)-5-(2-Bromovinyl)-uridine]
- log TCID50, average ([1]; HeLa, concentration of CTo): 2.66
- Δ log TCID50, average ([1]; HeLa, concentration of CTo): 3.16
- antiviral (anti-herpes) effect in words ([1]; listed as (E)-5-(2-Bromovinyl)-uridine): very active in inhibiting the multiplication of type 1 Herpes simplex virus
- antiviral (anti-herpes) effect in words ([1]; listed as (E)-5-(2-bromovinyl)-uridine): marked antiviral effect in vitro; also recorded: significantly reduced
- antiviral (anti-herpes) effect in words ([1]; listed as ribonucleoside of (E)-5-(2-bromovinyl)-uracil base): similarly high anti-herpes potency
- log TCID50 [1, 6]: 2.77 and 2.5 and 3.0 and 2.33
- Δ log TCID50 [1, 6]: 3.23 and 3.33 and 3.25 and 3.0 and 3.16 and 3.17
- Effect on virus multiplication, Herpes simpl. (Herpes simplex type 1): ++++
- CC50 [2]: 501 µg/mL (≈ 1440 µM)
- MNTC [2]: 39.8 µg/mL
- effect on cells and tissues used for culturing (tissue culture): without impairing the cells and tissues used for culturing
- CC50 [3]: 501 µg/mL (≈ 1440 µM)
- MNTC [3]: 126 µg/mL
- CC50 [4]: 398 µg/mL (≈ 1140 µM)
- MNTC [4]: 100 µg/mL
- water solubility (Water solubility): poor water solubility
- CC50 [5]: 398 µg/mL (≈ 1140 µM)
- MNTC [5]: 100 µg/mL
- Number of dead/treated animals (mice; mouse, in vivo, 1000 mg/kg): 0/5
- Number of dead/treated animals (mice; mouse, in vivo, 1500 mg/kg): 0/5
- Number of dead/treated animals (mice; mouse, in vivo, ip, 500 mg/kg): 0/5
- Number of dead/treated animals (mice; mouse, in vivo, ip, 750 mg/kg): 0/5
- Number of dead/treated animals (mice; mouse, in vivo, ip, 1000 mg/kg): 4/5
- Number of dead/treated animals (mice; mouse, in vivo, iv, 300 mg/kg): 0/5

SMILES: O=c1[nH]c(=O)n([C@H]2C[C@H](O)[C@@H](CO)O2)cc1I [C, 5iodo-2deoxy-uridine]
- CC50 [2]: 79.4 µg/mL (≈ 224 µM)
- MNTC [2]: 5.01 µg/mL
- CC50 [3]: 6.31 µg/mL (≈ 17.8 µM)
- MNTC [3]: 0.1 µg/mL
- CC50 [4]: 39.8 µg/mL (≈ 112 µM)
- MNTC [4]: 31.6 µg/mL
- CC50 [5]: 20 µg/mL (≈ 56.3 µM)
- MNTC [5]: 0.0398 µg/mL

SMILES: Nc1nc(=O)n([C@H]2C[C@H](O)[C@@H](CO)O2)cc1I [D, 5iodo-2deoxy-cytidine]
- CC50 [5]: 7.94 µg/mL (≈ 22.5 µM)
- MNTC [5]: 0.01 µg/mL

SMILES: O=c1[nH]c(=O)n([C@H]2C[C@H](O)[C@@H](CO)O2)cc1/C=C/Br [B, (E)-5-(2-bromovinyl)-2'-deoxy-uridine, reference compound]
- log TCID50, average ([1]; HeLa, concentration of CTo): 2.26
- Δ log TCID50, average ([1]; HeLa, concentration of CTo): 3.53
- antiviral (anti-herpes) effect in words [1]: marked antiviral effect in vitro
- Δ log TCID50 [1, 6]: 3.33 and 3.84 and 3.78 and 3.17
- Effect on virus multiplication, Herpes simpl. (Herpes simplex type 1): ++++
- MNTC ([2]; RK-13, highest concentration not impairing the tissue, read-out: CTo (converted)): 20 µg/mL
- CC50 [2, 7]: 794 µg/mL (≈ 2380 µM)
- effect on cells and tissues used for culturing (tissue culture; at concentrations as low as CTo): without impairing the cells and tissues used for culturing
- MNTC ([3]; BHK-21, highest concentration not impairing the tissue, read-out: CTo (converted)): 316 µg/mL
- CC50 [3, 7]: 794 µg/mL (≈ 2380 µM)
- MNTC ([4]; Vero, highest concentration not impairing the tissue, read-out: CTo (converted)): 39.8 µg/mL
- CC50 [4, 7]: 316 µg/mL (≈ 949 µM)
- MNTC ([5]; HeLa, highest concentration not impairing the tissue, read-out: CTo (converted)): 39.8 µg/mL
- CC50 [5, 7]: 251 µg/mL (≈ 754 µM)
- antiviral / anti-herpes activity in words (Herpes simplex virus): marked anti-herpes potency
- Number of dead/treated animals (mice; i.p., 500 mg/kg single dose, 24 hours): 0/5
- Number of dead/treated animals (mice; i.p., 750 mg/kg single dose, 24 hours): 2/5
- Number of dead/treated animals (mice; i.p., 1000 mg/kg single dose (aqueous suspension), 24 hours): 5/5
- Number of dead/treated animals (mice; i.v., 300 mg/kg single dose, 24 hours): 1/5
- Number of dead/treated animals (mice; per os, 1000 mg/kg single dose (aqueous suspension), 24 hours): 0/5
- Number of dead/treated animals (mice; per os, 1500 mg/kg single dose (aqueous suspension), 24 hours): 0/5
